Laboratory results: patent publication US8030498B2, “Benzoylpyrazole compounds and herbicides containing them” (Ishihara Sangyo Kaisha, Ltd., priority 2005, dated 2011)

Experiments:
rice (Oryza sativa L.) = test: Test Example 1: foliar treatment, growth inhibition rate, rice; assay type: in vivo; conditions: 31 g/ha active ingredient, visually observed 17th to 23rd day after application
From the text: (§1) Upland field soil was put into a 1/170,000 hectare pot, and seeds of various plants were sown. When the respective plants reached predetermined leaf stage ((1) barnyardgrass (Echinochloa crus-galli L.); 0.8 to 2.5 leaf stage, (2) crabgrass (Digitaria sanguinalis L.): 0.5 to 3.0 leaf stage, (3) greenfoxtail (Setaria viridis L.): 1.0 to 3.0 leaf stage, (4) redroot pigweed (Amaranthus retroflexus L.): cotyledon stage to 2.0 leaf stage, (5) prickly sida (Sida spinosa L.): cotyledon stage to 1.1 leaf stage, (6) velvetleaf (Abutilon theophrasti MEDIC.): cotyledon stage to 1.5 leaf stage, (7) rice (Oryza sativa L.): 1.0 to 2.5 leaf stage, (8) wheat (Triticum spp.): 1.7 to 3.4 leaf stage, (9) corn (Zea mays L.): 2.0 to 3.5 leaf stage, and (10) soybean (Glycine max Merr.): primary leaf stage to 0.3 leaf stage), wettable powders or emulsifiable concentrates of the compounds of the present invention prepared in accordance with a conventional preparation method, were weighed so that the active ingredients became the prescribed amounts, and diluted with water in an amount corresponding to 500 liter per 1 hectare. 0.1 vol % of an agricultural spreader was further added to the respective diluted liquids, followed by foliar treatment with a small sprayer.
(§2) On the 17th to 23rd day after application, the state of growth of the respective plants was visually observed, and the herbicidal effect was evaluated in accordance with a growth inhibition rate (%) of 0 (equivalent to the non-treated area) to 100% (complete kill).

[1] = system: greenfoxtail (Setaria viridis L.); test: Test Example 1: foliar treatment, growth inhibition rate, greenfoxtail; assay type: in vivo; conditions: 31 g/ha active ingredient, visually observed 17th to 23rd day after application
From the text: as §1, §2

prickly sida = test: Test Example 2: soil application on the day after sowing, growth inhibition rate, prickly sida; assay type: in vivo, Sida spinosa L.; conditions: 250 g/ha active ingredient, observed on 19th to 24th day
From the text: (§3) Upland field soil was put into a 1/170,000 hectare pot, and seeds of various plants (barnyardgrass, crabgrass, greenfoxtail, redroot pigweed, prickly sida, velvetleaf, rice, wheat, corn and soybean) were sown. On the day after sowing, wettable powders or emulsifiable concentrates of the compounds of the present invention prepared in accordance with a conventional preparation method, were weighed so that the active ingredients became the prescribed amounts, and diluted with water in an amount corresponding to 500 liter per 1 hectare, followed by soil application with a small sprayer. On the 19th to 24th day after the application, the state of growth of the respective plants was visually observed, and the herbicidal effect was evaluated in accordance with a growth inhibition rate (%) of from 0 (equivalent to the non-treated area) to 100% (complete kill).

[2] = system: prickly sida (Sida spinosa L.); test: Test Example 1: foliar treatment, growth inhibition rate, prickly sida; assay type: in vivo; conditions: 31 g/ha active ingredient, visually observed 17th to 23rd day after application
From the text: as §1, §2

corn = test: Test Example 2: soil application on the day after sowing, growth inhibition rate, corn; assay type: in vivo, Zea mays L.; conditions: 250 g/ha active ingredient, observed on 19th to 24th day
From the text: as §3

soybean = test: Test Example 2: soil application on the day after sowing, growth inhibition rate, soybean; assay type: in vivo, Glycine max Merr.; conditions: 250 g/ha active ingredient, observed on 19th to 24th day
From the text: as §3

barnyardgrass = test: Test Example 2: soil application on the day after sowing, growth inhibition rate, barnyardgrass; assay type: in vivo, Echinochloa crus-galli L.; conditions: 250 g/ha active ingredient, observed on 19th to 24th day
From the text: as §3

[3] = system: crabgrass (Digitaria sanguinalis L.); test: Test Example 1: foliar treatment, growth inhibition rate, crabgrass; assay type: in vivo; conditions: 31 g/ha active ingredient, visually observed 17th to 23rd day after application
From the text: as §1, §2

[4] = system: soybean (Glycine max Merr.); test: Test Example 1: foliar treatment, growth inhibition rate, soybean; assay type: in vivo; conditions: 31 g/ha active ingredient, visually observed 17th to 23rd day after application
From the text: as §1, §2

greenfoxtail = test: Test Example 2: soil application on the day after sowing, growth inhibition rate, greenfoxtail; assay type: in vivo, Setaria viridis L.; conditions: 250 g/ha active ingredient, observed on 19th to 24th day
From the text: as §3

corn (Zea mays L.) = test: Test Example 1: foliar treatment, growth inhibition rate, corn; assay type: in vivo; conditions: 31 g/ha active ingredient, visually observed 17th to 23rd day after application
From the text: as §1, §2

rice = test: Test Example 2: soil application on the day after sowing, growth inhibition rate, rice; assay type: in vivo, Oryza sativa L.; conditions: 250 g/ha active ingredient, observed on 19th to 24th day
From the text: as §3

crabgrass = test: Test Example 2: soil application on the day after sowing, growth inhibition rate, crabgrass; assay type: in vivo, Digitaria sanguinalis L.; conditions: 250 g/ha active ingredient, observed on 19th to 24th day
From the text: as §3

wheat (Triticum spp.) = test: Test Example 1: foliar treatment, growth inhibition rate, wheat; assay type: in vivo; conditions: 31 g/ha active ingredient, visually observed 17th to 23rd day after application
From the text: as §1, §2

velvetleaf = test: Test Example 2: soil application on the day after sowing, growth inhibition rate, velvetleaf; assay type: in vivo, Abutilon theophrasti MEDIC.; conditions: 250 g/ha active ingredient, observed on 19th to 24th day
From the text: as §3

[5] = system: velvetleaf (Abutilon theophrasti MEDIC.); test: Test Example 1: foliar treatment, growth inhibition rate, velvetleaf; assay type: in vivo; conditions: 31 g/ha active ingredient, visually observed 17th to 23rd day after application
From the text: as §1, §2

redroot pigweed = test: Test Example 2: soil application on the day after sowing, growth inhibition rate, redroot pigweed; assay type: in vivo, Amaranthus retroflexus L.; conditions: 250 g/ha active ingredient, observed on 19th to 24th day
From the text: as §3

[6] = system: barnyardgrass (Echinochloa crus-galli L.); test: Test Example 1: foliar treatment, growth inhibition rate, barnyardgrass; assay type: in vivo; conditions: 31 g/ha active ingredient, visually observed 17th to 23rd day after application
From the text: as §1, §2

[7] = system: redroot pigweed (Amaranthus retroflexus L.); test: Test Example 1: foliar treatment, growth inhibition rate, redroot pigweed; assay type: in vivo; conditions: 31 g/ha active ingredient, visually observed 17th to 23rd day after application
From the text: as §1, §2

COCCOc1c(S(C)(=O)=O)ccc(C(=O)c2cnn(C)c2OC(=O)SC)c1C [compound 233]
Growth inhibition rate (%) Rice (rice (Oryza sativa L.)): 80% | Growth inhibition rate (%) Greenfoxtail [1]: 100% | Growth inhibition rate (%) Prickly sida (prickly sida): 40% | Growth inhibition rate (%) Prickly sida [2]: 60% | Growth inhibition rate (%) Corn (corn): 0% | Growth inhibition rate (%) Soybean (soybean): 50% | Growth inhibition rate (%) Barnyardgrass (barnyardgrass): 100% | Growth inhibition rate (%) Crabgrass [3]: 100% | Growth inhibition rate (%) Soybean [4]: 100% | Growth inhibition rate (%) Greenfoxtail (greenfoxtail): 100% | Growth inhibition rate (%) Corn (corn (Zea mays L.)): 0% | Growth inhibition rate (%) Rice (rice): 100% | Growth inhibition rate (%) Crabgrass (crabgrass): 100% | Growth inhibition rate (%) Wheat (wheat (Triticum spp.)): 0% | Growth inhibition rate (%) Velvetleaf (velvetleaf): 100% | Growth inhibition rate (%) Velvetleaf [5]: 100% | Growth inhibition rate (%) redroot pigweed (redroot pigweed): 100% | Growth inhibition rate (%) Barnyardgrass [6]: 100%

CCCSC(=O)Oc1c(C(=O)c2ccc(S(C)(=O)=O)c(OCCOC)c2C)cnn1CC [compound 235]
Growth inhibition rate (%) Rice (rice (Oryza sativa L.)): 90% | Growth inhibition rate (%) Greenfoxtail [1]: 100% | Growth inhibition rate (%) Prickly sida (prickly sida): 98% | Growth inhibition rate (%) Prickly sida [2]: 50% | Growth inhibition rate (%) Corn (corn): 0% | Growth inhibition rate (%) Soybean (soybean): 0% | Growth inhibition rate (%) Barnyardgrass (barnyardgrass): 100% | Growth inhibition rate (%) Crabgrass [3]: 100% | Growth inhibition rate (%) Soybean [4]: 100% | Growth inhibition rate (%) Greenfoxtail (greenfoxtail): 100% | Growth inhibition rate (%) Corn (corn (Zea mays L.)): 30% | Growth inhibition rate (%) Rice (rice): 100% | Growth inhibition rate (%) Crabgrass (crabgrass): 100% | Growth inhibition rate (%) Wheat (wheat (Triticum spp.)): 40% | Growth inhibition rate (%) redroot pigweed [7]: 100% | Growth inhibition rate (%) Velvetleaf (velvetleaf): 20% | Growth inhibition rate (%) Velvetleaf [5]: 100% | Growth inhibition rate (%) redroot pigweed (redroot pigweed): 100% | Growth inhibition rate (%) Barnyardgrass [6]: 100%

CCSC(=O)Oc1c(C(=O)c2ccc(S(C)(=O)=O)c(OCC(C)OC)c2C)cnn1C (stereo not shown) [compound 189]
Growth inhibition rate (%) Rice (rice (Oryza sativa L.)): 90% | Growth inhibition rate (%) Greenfoxtail [1]: 98% | Growth inhibition rate (%) Prickly sida (prickly sida): 100% | Growth inhibition rate (%) Prickly sida [2]: 70% | Growth inhibition rate (%) Corn (corn): 0% | Growth inhibition rate (%) Soybean (soybean): 10% | Growth inhibition rate (%) Barnyardgrass (barnyardgrass): 100% | Growth inhibition rate (%) Crabgrass [3]: 95% | Growth inhibition rate (%) Soybean [4]: 98% | Growth inhibition rate (%) Greenfoxtail (greenfoxtail): 100% | Growth inhibition rate (%) Corn (corn (Zea mays L.)): 0% | Growth inhibition rate (%) Rice (rice): 100% | Growth inhibition rate (%) Crabgrass (crabgrass): 100% | Growth inhibition rate (%) Velvetleaf (velvetleaf): 100% | Growth inhibition rate (%) Velvetleaf [5]: 100% | Growth inhibition rate (%) redroot pigweed (redroot pigweed): 100% | Growth inhibition rate (%) Barnyardgrass [6]: 95%

CCOCCOc1c(S(C)(=O)=O)ccc(C(=O)c2cnn(C)c2OC(=O)SCC)c1C [compound 77]
Growth inhibition rate (%) Rice (rice (Oryza sativa L.)): 70% | Growth inhibition rate (%) Greenfoxtail [1]: 98% | Growth inhibition rate (%) Prickly sida [2]: 70% | Growth inhibition rate (%) Corn (corn): 0% | Growth inhibition rate (%) Crabgrass [3]: 98% | Growth inhibition rate (%) Soybean [4]: 95% | Growth inhibition rate (%) Corn (corn (Zea mays L.)): 10% | Growth inhibition rate (%) Crabgrass (crabgrass): 95% | Growth inhibition rate (%) Wheat (wheat (Triticum spp.)): 0% | Growth inhibition rate (%) redroot pigweed [7]: 95% | Growth inhibition rate (%) Velvetleaf (velvetleaf): 40% | Growth inhibition rate (%) Velvetleaf [5]: 80% | Growth inhibition rate (%) redroot pigweed (redroot pigweed): 90% | Growth inhibition rate (%) Barnyardgrass [6]: 98%

CCSC(=O)Oc1c(C(=O)c2ccc(S(C)(=O)=O)c(COCCOC)c2C)cnn1C [compound 76]
Growth inhibition rate (%) Rice (rice (Oryza sativa L.)): 60% | Growth inhibition rate (%) Greenfoxtail [1]: 80% | Growth inhibition rate (%) Prickly sida [2]: 65% | Growth inhibition rate (%) Corn (corn): 0% | Growth inhibition rate (%) Crabgrass [3]: 98% | Growth inhibition rate (%) Soybean [4]: 95% | Growth inhibition rate (%) Corn (corn (Zea mays L.)): 30% | Growth inhibition rate (%) Crabgrass (crabgrass): 100% | Growth inhibition rate (%) Wheat (wheat (Triticum spp.)): 0% | Growth inhibition rate (%) redroot pigweed [7]: 90% | Growth inhibition rate (%) Velvetleaf (velvetleaf): 30% | Growth inhibition rate (%) Velvetleaf [5]: 75% | Growth inhibition rate (%) redroot pigweed (redroot pigweed): 90% | Growth inhibition rate (%) Barnyardgrass [6]: 98%
